ChEMBL document CHEMBL4229370, “Discovery of novel quinazolinone derivatives as high potent and selective PI3Kδ and PI3Kδ/γ inhibitors” (Eur J Med Chem, 2018)
Blank lines part the entries; values can stand above or below the molecule they belong to.

Experiments:
[1] = target: T1, Phosphatidylinositol 4,5-bisphosphate 3-kinase catalytic subunit delta isoform (Homo sapiens) (UniProt O00329); experiment: Inhibition of PI3Kdelta (unknown origin) at 1 uM using Biotin-S11S12 as substrate after 120 mins in presence of ATP by ADPGlo luminescence assay
T1 sequence (whole entry): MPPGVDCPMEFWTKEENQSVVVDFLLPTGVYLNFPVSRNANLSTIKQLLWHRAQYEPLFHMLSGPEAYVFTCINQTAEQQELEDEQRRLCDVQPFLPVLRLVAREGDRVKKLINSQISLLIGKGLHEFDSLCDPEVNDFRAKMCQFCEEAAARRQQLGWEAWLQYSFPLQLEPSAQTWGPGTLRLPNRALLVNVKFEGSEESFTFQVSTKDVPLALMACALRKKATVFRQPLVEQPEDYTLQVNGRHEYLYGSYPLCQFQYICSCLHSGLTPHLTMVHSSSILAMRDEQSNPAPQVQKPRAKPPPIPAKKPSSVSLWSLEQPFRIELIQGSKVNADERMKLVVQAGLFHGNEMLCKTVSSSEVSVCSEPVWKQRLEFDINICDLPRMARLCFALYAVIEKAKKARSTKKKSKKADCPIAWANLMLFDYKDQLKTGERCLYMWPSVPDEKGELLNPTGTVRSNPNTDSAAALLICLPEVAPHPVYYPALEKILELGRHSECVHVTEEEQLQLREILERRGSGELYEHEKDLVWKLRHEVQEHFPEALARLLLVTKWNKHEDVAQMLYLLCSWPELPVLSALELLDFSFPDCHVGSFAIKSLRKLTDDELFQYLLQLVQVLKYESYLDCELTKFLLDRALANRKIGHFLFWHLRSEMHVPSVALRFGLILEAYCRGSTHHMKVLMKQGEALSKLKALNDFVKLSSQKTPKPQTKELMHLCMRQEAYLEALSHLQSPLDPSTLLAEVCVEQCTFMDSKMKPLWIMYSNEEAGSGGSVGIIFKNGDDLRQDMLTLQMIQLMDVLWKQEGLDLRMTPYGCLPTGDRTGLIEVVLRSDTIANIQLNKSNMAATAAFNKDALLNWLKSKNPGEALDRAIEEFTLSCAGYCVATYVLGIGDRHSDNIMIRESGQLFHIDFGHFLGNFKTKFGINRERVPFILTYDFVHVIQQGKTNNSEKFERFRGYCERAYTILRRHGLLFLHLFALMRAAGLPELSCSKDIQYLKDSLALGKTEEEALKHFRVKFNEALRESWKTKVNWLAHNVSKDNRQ

SU-DHL-6 = experiment: Growth inhibition of human SU-DHL6 cells by CellTiter-Glo assay; type: functional
[2] = target: T2, Phosphatidylinositol 4,5-bisphosphate 3-kinase catalytic subunit delta isoform (Homo sapiens, UniProt O00329); experiment: Inhibition of PI3Kdelta (unknown origin) using Biotin-S11S12 as substrate after 120 mins in presence of ATP by ADPGlo luminescence assay
T2 sequence (O00329 whole entry): T1 sequence (whole entry)

[3] = Terminal half-life in Sprague-Dawley rat at 1 mg/kg, iv; type: ADME, organism-based; conditions: in vivo, read-out: beta t1/2 (converted)
[4] = Plasma concentration in Sprague-Dawley rat at 10 mg/kg, po after 1 hrs; type: ADME, organism-based
[5] = Plasma concentration in Sprague-Dawley rat at 10 mg/kg, po after 0.5 hrs; type: ADME, organism-based
[6] = Clearance in Sprague-Dawley rat at 1 mg/kg, iv; type: ADME, organism-based; conditions: in vivo
[7] = Plasma concentration in Sprague-Dawley rat at 1 mg/kg, iv after 4 hrs; type: ADME, organism-based
[8] = Plasma concentration in Sprague-Dawley rat at 1 mg/kg, iv after 8 hrs; type: ADME, organism-based
[9] = Volume of distribution at steady state in Sprague-Dawley rat at 1 mg/kg, iv; type: ADME, organism-based; conditions: in vivo, read-out: Vdss
[10] = target: Phosphatidylinositol 4,5-bisphosphate 3-kinase catalytic subunit alpha isoform (Homo sapiens, UniProt P42336); experiment: Inhibition of PI3Kalpha (unknown origin) using Biotin-S11S12 as substrate after 60 mins in presence of ATP by Kinase Glo luminescence assay
Sequence of Phosphatidylinositol 4,5-bisphosphate 3-kinase catalytic subunit alpha isoform (P42336 whole entry, canonical isoform): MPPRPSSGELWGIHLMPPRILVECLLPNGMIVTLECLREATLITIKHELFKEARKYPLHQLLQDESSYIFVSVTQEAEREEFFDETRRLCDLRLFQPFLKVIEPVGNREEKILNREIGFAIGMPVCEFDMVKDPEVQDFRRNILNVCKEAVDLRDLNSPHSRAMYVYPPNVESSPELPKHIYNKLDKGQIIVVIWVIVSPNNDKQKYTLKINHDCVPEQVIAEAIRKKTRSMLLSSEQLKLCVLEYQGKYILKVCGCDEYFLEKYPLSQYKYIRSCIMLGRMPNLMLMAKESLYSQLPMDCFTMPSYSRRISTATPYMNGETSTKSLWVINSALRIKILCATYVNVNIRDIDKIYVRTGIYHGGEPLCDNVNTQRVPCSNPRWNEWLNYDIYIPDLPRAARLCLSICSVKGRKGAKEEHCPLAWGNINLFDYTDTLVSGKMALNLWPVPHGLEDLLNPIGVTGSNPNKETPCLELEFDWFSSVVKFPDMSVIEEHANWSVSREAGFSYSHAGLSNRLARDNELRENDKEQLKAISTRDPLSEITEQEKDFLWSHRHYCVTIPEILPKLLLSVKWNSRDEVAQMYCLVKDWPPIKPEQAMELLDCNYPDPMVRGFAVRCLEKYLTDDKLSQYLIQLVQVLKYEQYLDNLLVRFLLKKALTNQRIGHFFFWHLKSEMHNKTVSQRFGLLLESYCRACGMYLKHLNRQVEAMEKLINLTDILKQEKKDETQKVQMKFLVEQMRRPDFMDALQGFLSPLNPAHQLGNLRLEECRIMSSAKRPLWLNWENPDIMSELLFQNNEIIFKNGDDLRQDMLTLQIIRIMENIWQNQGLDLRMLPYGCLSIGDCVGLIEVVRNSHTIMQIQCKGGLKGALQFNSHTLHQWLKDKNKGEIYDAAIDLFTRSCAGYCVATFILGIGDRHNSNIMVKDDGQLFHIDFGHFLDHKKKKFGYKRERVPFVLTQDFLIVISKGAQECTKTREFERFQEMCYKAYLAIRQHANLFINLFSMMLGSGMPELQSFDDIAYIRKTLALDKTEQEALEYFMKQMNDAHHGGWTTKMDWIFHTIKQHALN

[11] = AUClast in Sprague-Dawley rat at 10 mg/kg, po; type: ADME, organism-based; set-up: dose 10 mg/kg, time 0 - last, route oral; conditions: in vivo
[12] = target: Phosphatidylinositol 4,5-bisphosphate 3-kinase catalytic subunit gamma isoform (Homo sapiens, UniProt P48736); experiment: Inhibition of PI3Kgamma (unknown origin) using Biotin-S11S12 as substrate after 60 mins in presence of ATP by ADPGlo luminescence assay
Sequence of Phosphatidylinositol 4,5-bisphosphate 3-kinase catalytic subunit gamma isoform (P48736 whole entry, canonical isoform): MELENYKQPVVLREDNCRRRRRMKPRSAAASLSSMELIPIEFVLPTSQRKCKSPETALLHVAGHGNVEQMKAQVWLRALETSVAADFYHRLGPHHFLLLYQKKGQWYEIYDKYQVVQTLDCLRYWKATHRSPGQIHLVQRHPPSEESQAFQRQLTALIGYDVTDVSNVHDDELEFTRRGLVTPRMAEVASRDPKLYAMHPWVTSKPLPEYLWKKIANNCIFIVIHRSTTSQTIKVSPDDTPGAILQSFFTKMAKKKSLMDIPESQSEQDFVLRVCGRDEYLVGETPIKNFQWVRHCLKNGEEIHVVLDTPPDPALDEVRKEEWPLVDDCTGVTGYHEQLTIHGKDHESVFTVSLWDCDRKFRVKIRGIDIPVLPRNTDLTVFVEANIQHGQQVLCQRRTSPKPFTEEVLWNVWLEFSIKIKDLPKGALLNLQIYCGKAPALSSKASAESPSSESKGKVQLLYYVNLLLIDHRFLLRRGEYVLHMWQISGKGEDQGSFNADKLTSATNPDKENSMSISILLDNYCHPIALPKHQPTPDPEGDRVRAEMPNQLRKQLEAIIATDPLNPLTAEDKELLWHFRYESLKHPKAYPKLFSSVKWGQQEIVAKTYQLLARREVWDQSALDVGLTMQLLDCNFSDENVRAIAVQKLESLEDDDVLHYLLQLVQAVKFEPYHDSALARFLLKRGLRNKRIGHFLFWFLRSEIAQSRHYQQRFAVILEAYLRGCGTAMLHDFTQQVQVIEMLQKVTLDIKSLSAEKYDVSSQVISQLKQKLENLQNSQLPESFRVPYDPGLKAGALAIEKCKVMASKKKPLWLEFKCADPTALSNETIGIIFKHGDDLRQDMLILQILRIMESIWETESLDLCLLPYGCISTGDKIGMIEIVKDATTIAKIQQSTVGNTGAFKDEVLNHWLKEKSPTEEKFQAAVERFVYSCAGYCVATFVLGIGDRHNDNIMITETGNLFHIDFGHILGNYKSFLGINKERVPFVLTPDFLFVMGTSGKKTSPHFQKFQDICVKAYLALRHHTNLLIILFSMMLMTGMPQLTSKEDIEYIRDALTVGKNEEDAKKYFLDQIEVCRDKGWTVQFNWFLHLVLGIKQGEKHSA

[13] = AUC (0 to infinity) in Sprague-Dawley rat at 1 mg/kg, iv; type: ADME, organism-based; set-up: dose 1 mg/kg, time infinity, route intravenous; conditions: in vivo
[14] = Plasma concentration in Sprague-Dawley rat at 1 mg/kg, iv after 1 hrs; type: ADME, organism-based
[15] = Plasma concentration in Sprague-Dawley rat at 1 mg/kg, iv after 0.5 hrs; type: ADME, organism-based
[16] = Oral bioavailability in Sprague-Dawley rat at 10 mg/kg; type: ADME, organism-based; conditions: in vivo
Homo sapiens [17] = species: Homo sapiens; experiment: Selectivity index, ratio of IC50 for PI3Kbeta (unknown origin) to IC50 for PI3Kdelta (unknown origin)
[18] = Plasma concentration in Sprague-Dawley rat at 1 mg/kg, iv after 0.083 hrs; type: ADME, organism-based
[19] = Plasma concentration in Sprague-Dawley rat at 1 mg/kg, iv after 24 hrs; type: ADME, organism-based; conditions: in vivo, BLD = below limit of detection
[20] = AUClast in Sprague-Dawley rat at 1 mg/kg, iv; type: ADME, organism-based; set-up: dose 1 mg/kg, time 0 - last, route intravenous; conditions: in vivo
[21] = Plasma concentration in Sprague-Dawley rat at 10 mg/kg, po after 0.25 hrs; type: ADME, organism-based
[22] = Plasma concentration in Sprague-Dawley rat at 10 mg/kg, po after 0.083 hrs; type: ADME, organism-based
[23] = Cmax in Sprague-Dawley rat at 10 mg/kg, po; type: ADME, organism-based; set-up: dose 10 mg/kg, route oral; conditions: in vivo
[24] = Tmax in Sprague-Dawley rat at 10 mg/kg, po; type: ADME, organism-based; conditions: in vivo
[25] = AUC (0 to infinity) in Sprague-Dawley rat at 10 mg/kg, po; type: ADME, organism-based; set-up: dose 10 mg/kg, time infinity, route oral; conditions: in vivo
[26] = Plasma concentration in Sprague-Dawley rat at 10 mg/kg, po after 2 hrs; type: ADME, organism-based
Homo sapiens [27] = species: Homo sapiens; experiment: Selectivity index, ratio of IC50 for PI3Kalpha (unknown origin) to IC50 for PI3Kdelta (unknown origin)
[28] = Plasma concentration in Sprague-Dawley rat at 10 mg/kg, po after 4 hrs; type: ADME, organism-based
[29] = MRT (infinity) in Sprague-Dawley rat at 1 mg/kg, iv; type: ADME, organism-based; conditions: in vivo
[30] = Plasma concentration in Sprague-Dawley rat at 10 mg/kg, po after 8 hrs; type: ADME, organism-based
[31] = Plasma concentration in Sprague-Dawley rat at 1 mg/kg, iv after 2 hrs; type: ADME, organism-based
[32] = Plasma concentration in Sprague-Dawley rat at 10 mg/kg, po after 24 hrs; type: ADME, organism-based; conditions: in vivo, BLD = below limit of detection
[33] = Plasma concentration in Sprague-Dawley rat at 1 mg/kg, iv after 0.25 hrs; type: ADME, organism-based
[34] = Terminal half-life in Sprague-Dawley rat at 10 mg/kg, po; type: ADME, organism-based; conditions: in vivo, read-out: beta t1/2 (converted)
Homo sapiens [35] = species: Homo sapiens; experiment: Selectivity index, ratio of IC50 for PI3Kgamma (unknown origin) to IC50 for PI3Kdelta (unknown origin)
[36] = target: Phosphatidylinositol 4,5-bisphosphate 3-kinase catalytic subunit beta isoform (Homo sapiens, UniProt P42338); experiment: Inhibition of PI3Kbeta (unknown origin) using Biotin-S11S12 as substrate after 60 mins in presence of ATP by ADPGlo luminescence assay
Sequence of Phosphatidylinositol 4,5-bisphosphate 3-kinase catalytic subunit beta isoform (P42338 whole entry, canonical isoform): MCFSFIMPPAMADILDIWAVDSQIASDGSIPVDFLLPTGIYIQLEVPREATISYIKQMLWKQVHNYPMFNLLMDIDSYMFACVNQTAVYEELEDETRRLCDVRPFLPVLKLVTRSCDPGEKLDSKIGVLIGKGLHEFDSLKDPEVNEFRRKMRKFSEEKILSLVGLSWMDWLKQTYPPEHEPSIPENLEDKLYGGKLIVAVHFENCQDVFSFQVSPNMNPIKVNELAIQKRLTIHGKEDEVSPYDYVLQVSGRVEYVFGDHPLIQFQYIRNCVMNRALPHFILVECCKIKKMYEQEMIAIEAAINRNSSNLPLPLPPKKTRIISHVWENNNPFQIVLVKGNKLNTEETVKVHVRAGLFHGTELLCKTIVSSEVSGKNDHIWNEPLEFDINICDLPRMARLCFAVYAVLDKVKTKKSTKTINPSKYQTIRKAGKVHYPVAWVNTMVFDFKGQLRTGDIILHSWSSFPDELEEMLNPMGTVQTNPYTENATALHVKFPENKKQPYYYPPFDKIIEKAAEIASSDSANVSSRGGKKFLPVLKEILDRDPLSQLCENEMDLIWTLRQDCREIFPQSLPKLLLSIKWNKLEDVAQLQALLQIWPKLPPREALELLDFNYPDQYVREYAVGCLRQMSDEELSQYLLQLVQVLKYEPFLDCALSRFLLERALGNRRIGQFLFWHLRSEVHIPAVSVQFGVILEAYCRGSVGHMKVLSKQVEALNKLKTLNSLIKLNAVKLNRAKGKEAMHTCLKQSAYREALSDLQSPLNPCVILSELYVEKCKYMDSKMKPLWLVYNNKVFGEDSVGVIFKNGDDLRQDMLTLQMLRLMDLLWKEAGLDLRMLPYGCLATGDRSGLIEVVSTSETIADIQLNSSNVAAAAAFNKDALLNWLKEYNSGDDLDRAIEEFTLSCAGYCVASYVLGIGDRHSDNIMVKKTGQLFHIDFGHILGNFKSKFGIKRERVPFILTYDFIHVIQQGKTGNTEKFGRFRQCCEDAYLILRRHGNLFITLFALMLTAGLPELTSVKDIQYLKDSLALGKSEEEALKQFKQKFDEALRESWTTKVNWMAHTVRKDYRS

IC50 [2]: 106 nM
inhibition [1]: 89.6%
SMILES: Cc1ccccc1-n1c(Cn2nc(-c3ccc4c(c3)OCO4)c3c(N)ncnc32)nc2cccc(F)c2c1=O

IC50 [2]: 26 nM
inhibition [1]: 90.8%
SMILES: COc1ccc(-c2nn(Cc3nc4cccc(F)c4c(=O)n3-c3ccccc3C)c3ncnc(N)c23)cc1OC

IC50 [2]: 84 nM
inhibition [1]: 89.1%
SMILES: Cc1cccc(C)c1-n1c(Cn2nc(-c3ccc4c(c3)OCO4)c3c(N)ncnc32)nc2cccc(F)c2c1=O

IC50 [2]: 86 nM
inhibition [1]: 90%
SMILES: Cc1ccccc1-n1c(Cn2nc(-c3cnc4ccccc4c3)c3c(N)ncnc32)nc2cccc(F)c2c1=O

IC50 [2]: 227 nM
inhibition [1]: 73%
SMILES: Cc1ccccc1-n1c(Cn2nc(-c3ccc4cc(O)ccc4c3)c3c(N)ncnc32)nc2cccc(F)c2c1=O

IC50 [2]: 31 nM
inhibition [1]: 92.7%
SMILES: COc1ccc(-c2nn(Cc3nc4cccc(F)c4c(=O)n3-c3ccccc3C)c3ncnc(N)c23)cn1

inhibition [1]: 70.8%
SMILES: Cc1ccccc1-n1c(Cn2nc(-c3cccc(OC(F)(F)F)c3)c3c(N)ncnc32)nc2cccc(F)c2c1=O

IC50 [2]: 16 nM
inhibition [1]: 94.7%
SMILES: Cc1ccccc1-n1c(Cn2nc(-c3ccc4[nH]ccc4c3)c3c(N)ncnc32)nc2cccc(F)c2c1=O

Continued, molecule first:

SMILES: Cc1cccc(C)c1-n1c(Cn2nc(-c3cccc(OC(F)(F)F)c3)c3c(N)ncnc32)nc2cccc(F)c2c1=O
inhibition [1]: 29.6%

SMILES: CC[C@H](Nc1ncnc2[nH]cnc12)c1nc2cccc(F)c2c(=O)n1-c1ccccc1 [IDELALISIB]
GI50 (SU-DHL-6): 42 nM
inhibition [1]: 91.9%

SMILES: Cc1cccc(C)c1-n1c(Cn2nc(-c3ccc4cc(O)ccc4c3)c3c(N)ncnc32)nc2cccc(F)c2c1=O
IC50 [2]: 416 nM
inhibition [1]: 77.3%

SMILES: COc1ccc(-c2nn(Cc3nc4cccc(F)c4c(=O)n3-c3c(C)cccc3C)c3ncnc(N)c23)cc1OC
half-life [3]: 37.2 min
concentration at 1 h [4]: 318 ng/mL
concentration at 0.5 h [5]: 379 ng/mL
clearance [6]: 16.5 mL/min/kg
concentration at 4 h [7]: 2.58 ng/mL
concentration at 8 h [8]: 1.83 ng/mL
IC50 [2]: 8.4 nM
Vd [9]: 0.45 L/kg
IC50 [10]: 11.8 µM
AUC(0-t) [11]: 3530 ng·h/mL
IC50 [12]: 62 nM
AUC(0-inf) [13]: 1020 ng·h/mL
concentration at 1 h [14]: 64.3 ng/mL
concentration at 0.5 h [15]: 250 ng/mL
bioavailability [16]: 34.9%
Ratio IC50 (Homo sapiens [17]): 828
GI50 (SU-DHL-6): 222 nM
inhibition [1]: 96.8%
concentration at 0.083 h [18]: 1020 ng/mL
Cp [19]: Bld
AUC(0-t) [20]: 1010 ng·h/mL
concentration at 0.25 h [21]: 343 ng/mL
concentration at 0.083 h [22]: 198 ng/mL
Cmax [23]: 387 ng/mL
Tmax [24]: 50 min
AUC(0-inf) [25]: 3550 ng·h/mL
concentration at 2 h [26]: 192 ng/mL
Ratio IC50 (Homo sapiens [27]): 1410
concentration at 4 h [28]: 9.86 ng/mL
MRT inf [29]: 30.6 min
concentration at 8 h [30]: 6.5 ng/mL
concentration at 2 h [31]: 13.1 ng/mL
Cp [32]: Bld
concentration at 0.25 h [33]: 541 ng/mL
half-life [34]: 101 min
Ratio IC50 (Homo sapiens [35]): 7
IC50 [36]: 6.96 µM

SMILES: Cc1cccc(C)c1-n1c(Cn2nc(-c3ccc4[nH]ccc4c3)c3c(N)ncnc32)nc2cccc(F)c2c1=O
half-life [3]: 50.4 min
concentration at 1 h [4]: 318 ng/mL
concentration at 0.5 h [5]: 379 ng/mL
clearance [6]: 36 mL/min/kg
concentration at 4 h [7]: 2.58 ng/mL
concentration at 8 h [8]: 1.83 ng/mL
IC50 [2]: 8.6 nM
Vd [9]: 1.11 L/kg
IC50 [10]: 31.3 µM
AUC(0-t) [11]: 808 ng·h/mL
IC50 [12]: 363 nM
AUC(0-inf) [13]: 473 ng·h/mL
concentration at 1 h [14]: 64.3 ng/mL
concentration at 0.5 h [15]: 250 ng/mL
bioavailability [16]: 17.3%
Ratio IC50 (Homo sapiens [17]): 392
GI50 (SU-DHL-6): 149 nM
inhibition [1]: 96.8%
concentration at 0.083 h [18]: 1020 ng/mL
Cp [19]: Bld
AUC(0-t) [20]: 471 ng·h/mL
concentration at 0.25 h [21]: 343 ng/mL
concentration at 0.083 h [22]: 198 ng/mL
Cmax [23]: 387 ng/mL
Tmax [24]: 50 min
AUC(0-inf) [25]: 820 ng·h/mL
concentration at 2 h [26]: 192 ng/mL
Ratio IC50 (Homo sapiens [27]): 3640
concentration at 4 h [28]: 9.86 ng/mL
MRT inf [29]: 30.6 min
concentration at 8 h [30]: 6.5 ng/mL
concentration at 2 h [31]: 13.1 ng/mL
Cp [32]: Bld
concentration at 0.25 h [33]: 541 ng/mL
half-life [34]: 78.6 min
Ratio IC50 (Homo sapiens [35]): 42
IC50 [36]: 3.37 µM

SMILES: Cc1cccc(C)c1-n1c(Cn2nc(-c3cnc4ccccc4c3)c3c(N)ncnc32)nc2cccc(F)c2c1=O
IC50 [2]: 81 nM
inhibition [1]: 92%

SMILES: COc1ccc(-c2nn(Cc3nc4cccc(F)c4c(=O)n3-c3c(C)cccc3C)c3ncnc(N)c23)cn1
IC50 [2]: 41 nM
inhibition [1]: 94.7%
